{
  "source": "paper PMC9786741",
  "about": "“Elucidating the Role of Santalol as a Potent Inhibitor of Tyrosinase: In Vitro and In Silico Approaches” (Molecules, 2022)",
  "biological_target": "T1, tyrosinase (mushroom tyrosinase, polyphenoloxidase EC 1.14.18.1)",
  "T1 construct": "gene PPO3; native enzyme from mushroom caps; ammonium sulphate, DEAE-cellulose, Superdex 200; single 63 kDa band on SDS-PAGE; isoenzyme not determined",
  "test": "isothermal titration calorimetry",
  "design": "species or system Agaricus bisporus",
  "settings": "25 °C, pH 6.8, 25 mM phosphate; step 1 (strongest) of three-step sequential binding model",
  "from_the_text": "isothermal titration calorimetry on tyrosinase (mushroom tyrosinase, polyphenoloxidase EC 1.14.18.1)",
  "data": [
    {"smiles": "C=C1C2CCC(C2)C1(C)CC/C=C(/C)CO", "note": "(stereo not shown) [santalol]", "values": [
      {"measurement": "Kd", "result": 1270, "unit": "nM"}
    ]}
  ]
}
